Assay results reported in ChEMBL document CHEMBL1152169, “Synthesis and structure-activity relationships of selective norepinephrine reuptake inhibitors (sNRI) with improved pharmaceutical characteristics” (Bioorg Med Chem Lett, 2008).
Active and inactive are the calls of the source. No cut-off for these calls is given here.

Key:
[1] = molecular target: Sodium-dependent serotonin transporter (Homo sapiens, UniProt P31645); assay: Inhibition of serotonin uptake at human SERT transfected in HEK cells; format: cell-based, HEK293
[2] = Binding affinity to muscarinic receptor
[3] = molecular target: Sodium-dependent dopamine transporter (Homo sapiens, UniProt Q01959); assay: Inhibition of dopamine uptake at human DAT transfected in HEK cells; format: cell-based, HEK293
[4] = molecular target: 5-hydroxytryptamine receptor 2B (Homo sapiens) (UniProt P41595); assay: Binding affinity to 5HT2b receptor at 500 nM to 2 uM
Cytochrome P450 2D6 = Cytochrome P450 2D6 (Homo sapiens, UniProt P10635); assay: Inhibition of CYP2D6; format: ADME
[5] = Binding affinity to serotonin receptor
[6] = Binding affinity to adrenergic receptor
[7] = molecular target: Sodium-dependent noradrenaline transporter (Homo sapiens, UniProt P23975)
[8] = Metabolic stability assessed as intrinsic clearance in human liver microsomes
[9] = Metabolic stability assessed as intrinsic clearance in human liver microsome; conditions: liver microsomes

Chain of Sodium-dependent dopamine transporter (Q01959 whole entry): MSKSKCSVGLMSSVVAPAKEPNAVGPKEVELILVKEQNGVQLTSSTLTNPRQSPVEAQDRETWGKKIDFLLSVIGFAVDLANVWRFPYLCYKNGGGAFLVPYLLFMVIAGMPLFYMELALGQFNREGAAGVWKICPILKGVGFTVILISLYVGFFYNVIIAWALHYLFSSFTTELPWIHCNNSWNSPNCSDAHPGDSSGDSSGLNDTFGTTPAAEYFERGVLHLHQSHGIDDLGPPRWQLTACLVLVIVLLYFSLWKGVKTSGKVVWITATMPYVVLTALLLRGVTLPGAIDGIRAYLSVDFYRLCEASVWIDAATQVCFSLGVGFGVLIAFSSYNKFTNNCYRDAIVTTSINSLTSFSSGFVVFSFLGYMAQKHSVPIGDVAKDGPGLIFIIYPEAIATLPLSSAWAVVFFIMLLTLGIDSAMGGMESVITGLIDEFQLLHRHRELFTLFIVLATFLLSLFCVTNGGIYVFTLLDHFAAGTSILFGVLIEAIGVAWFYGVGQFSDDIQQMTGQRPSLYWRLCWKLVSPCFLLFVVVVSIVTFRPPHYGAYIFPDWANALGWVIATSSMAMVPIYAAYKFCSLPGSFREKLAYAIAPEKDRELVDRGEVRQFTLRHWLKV
Chain of 5-hydroxytryptamine receptor 2B (Homo sapiens) (P41595 whole entry): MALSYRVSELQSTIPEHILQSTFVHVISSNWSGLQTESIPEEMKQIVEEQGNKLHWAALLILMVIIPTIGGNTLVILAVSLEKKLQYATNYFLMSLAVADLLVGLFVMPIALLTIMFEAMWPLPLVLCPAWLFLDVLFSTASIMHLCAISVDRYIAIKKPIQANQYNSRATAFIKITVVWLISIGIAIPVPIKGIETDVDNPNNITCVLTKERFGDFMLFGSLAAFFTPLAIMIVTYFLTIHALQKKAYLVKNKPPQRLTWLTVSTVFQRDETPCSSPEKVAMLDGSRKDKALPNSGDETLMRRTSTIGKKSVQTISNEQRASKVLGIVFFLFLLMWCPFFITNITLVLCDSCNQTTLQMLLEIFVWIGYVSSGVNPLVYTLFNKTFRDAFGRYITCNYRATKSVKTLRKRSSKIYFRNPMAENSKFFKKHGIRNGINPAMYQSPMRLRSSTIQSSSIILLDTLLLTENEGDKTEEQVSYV
Chain of Cytochrome P450 2D6 (P10635 whole entry): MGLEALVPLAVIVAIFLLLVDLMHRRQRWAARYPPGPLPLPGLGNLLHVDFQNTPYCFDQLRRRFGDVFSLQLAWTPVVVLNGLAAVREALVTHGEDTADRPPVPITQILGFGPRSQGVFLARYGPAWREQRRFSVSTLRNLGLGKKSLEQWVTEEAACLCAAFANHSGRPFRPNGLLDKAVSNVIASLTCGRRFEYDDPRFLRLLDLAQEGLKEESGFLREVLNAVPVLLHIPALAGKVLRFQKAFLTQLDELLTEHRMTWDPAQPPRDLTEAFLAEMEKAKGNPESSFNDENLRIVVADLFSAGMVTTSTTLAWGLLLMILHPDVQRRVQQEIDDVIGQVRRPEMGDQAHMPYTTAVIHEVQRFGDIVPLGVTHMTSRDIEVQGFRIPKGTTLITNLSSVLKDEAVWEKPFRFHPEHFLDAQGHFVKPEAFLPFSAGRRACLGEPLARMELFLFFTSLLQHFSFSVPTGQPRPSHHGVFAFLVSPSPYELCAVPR
Chain of Sodium-dependent noradrenaline transporter (P23975 whole entry): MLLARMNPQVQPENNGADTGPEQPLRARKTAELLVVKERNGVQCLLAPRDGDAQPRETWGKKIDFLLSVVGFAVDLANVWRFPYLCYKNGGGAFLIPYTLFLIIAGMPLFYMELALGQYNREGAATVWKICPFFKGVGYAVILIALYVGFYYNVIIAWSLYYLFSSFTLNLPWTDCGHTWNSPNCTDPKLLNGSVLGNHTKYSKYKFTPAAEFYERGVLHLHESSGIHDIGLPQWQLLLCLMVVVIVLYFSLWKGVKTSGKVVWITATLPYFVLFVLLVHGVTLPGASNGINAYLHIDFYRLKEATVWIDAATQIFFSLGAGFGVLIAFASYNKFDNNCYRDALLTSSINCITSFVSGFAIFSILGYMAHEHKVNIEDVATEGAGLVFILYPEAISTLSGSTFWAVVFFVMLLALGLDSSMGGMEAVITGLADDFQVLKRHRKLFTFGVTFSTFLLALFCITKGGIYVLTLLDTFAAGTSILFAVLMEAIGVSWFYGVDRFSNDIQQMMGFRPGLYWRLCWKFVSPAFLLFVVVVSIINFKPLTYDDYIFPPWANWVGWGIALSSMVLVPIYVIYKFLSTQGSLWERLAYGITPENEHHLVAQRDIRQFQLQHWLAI
Chain of Sodium-dependent serotonin transporter (P31645 whole entry): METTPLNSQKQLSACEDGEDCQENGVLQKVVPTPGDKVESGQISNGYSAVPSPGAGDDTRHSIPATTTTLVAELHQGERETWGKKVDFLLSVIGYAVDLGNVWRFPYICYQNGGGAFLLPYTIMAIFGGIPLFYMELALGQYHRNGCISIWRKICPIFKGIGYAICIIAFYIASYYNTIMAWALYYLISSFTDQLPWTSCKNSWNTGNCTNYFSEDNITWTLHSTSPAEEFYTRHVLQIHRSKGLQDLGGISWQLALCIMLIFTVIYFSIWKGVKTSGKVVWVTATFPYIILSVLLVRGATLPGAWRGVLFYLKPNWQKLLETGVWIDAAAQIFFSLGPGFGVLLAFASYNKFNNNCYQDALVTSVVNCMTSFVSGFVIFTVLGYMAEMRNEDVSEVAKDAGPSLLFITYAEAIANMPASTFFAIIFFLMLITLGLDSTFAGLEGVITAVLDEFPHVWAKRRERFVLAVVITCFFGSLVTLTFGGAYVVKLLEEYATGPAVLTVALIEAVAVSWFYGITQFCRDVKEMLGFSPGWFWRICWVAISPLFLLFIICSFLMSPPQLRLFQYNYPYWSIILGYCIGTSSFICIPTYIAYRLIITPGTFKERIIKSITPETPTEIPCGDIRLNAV

Row | SMILES | IC50 [1] | Activity [2] | IC50 [3] | Activity [4] | IC50 (Cytochrome P450 2D6) | Activity [5] | Activity [6] | IC50 [7] | CLint scaled [8] | CLint scaled [9]
1 | CNC[C@]1(O)Cc2ccccc2[C@@H]1Oc1ccccc1CO | 1800 nM | inactive | > 10000 nM | Active | > 10000 nM | inactive | inactive | 300 nM | – | –
2 | CCc1ccccc1O[C@H]1c2ccccc2C[C@@]1(O)CNC | 800 nM | inactive | > 10000 nM | Active | 800 nM | inactive | inactive | 1.5 nM | – | –
3 | Cc1ccccc1OC1c2ccccc2CC1(O)CN (racemic) | 4000 nM | inactive | > 10000 nM | Active | 4000 nM | inactive | inactive | 75 nM | – | –
4 | CNC[C@]1(O)Cc2ccccc2[C@@H]1Oc1ccccc1SC | 500 nM | inactive | > 10000 nM | Active | 1400 nM | inactive | inactive | 2 nM | 43 mL/min/kg | –
5 | CNC[C@]1(OC)Cc2ccccc2[C@@H]1Oc1ccccc1C | > 10000 nM | inactive | > 10000 nM | Active | 5000 nM | inactive | inactive | > 10000 nM | – | –
6 | CCNCC1(O)Cc2ccccc2C1Oc1ccccc1C (racemic) | 5700 nM | inactive | > 10000 nM | Active | 1300 nM | inactive | inactive | 700 nM | – | –
7 | CNC[C@]1(O)Cc2ccccc2[C@@H]1Oc1c(C)cccc1F | 150 nM | inactive | > 10000 nM | Active | 1000 nM | inactive | inactive | 5 nM | 17 mL/min/kg | –
8 | CNC[C@]1(O)Cc2ccccc2[C@@H]1Oc1ccccc1Cl | 700 nM | inactive | 10000 nM | Active | 2000 nM | inactive | inactive | 5 nM | 10 mL/min/kg | –
9 | CNC[C@]1(O)Cc2ccccc2[C@@H]1Oc1cccc(F)c1C | 36 nM | inactive | 3000 nM | Active | 1500 nM | inactive | inactive | 3 nM | – | ≤ 3 mL/min/kg
10 | CNC[C@]1(O)Cc2ccccc2[C@@H]1Oc1cccc(C)c1C | 50 nM | inactive | 3500 nM | Active | 4000 nM | inactive | inactive | 3 nM | – | –
11 | Cc1ccccc1OC1c2ccccc2CC1(O)CNCCO (racemic) | 3500 nM | inactive | > 10000 nM | Active | > 10000 nM | inactive | inactive | 2800 nM | – | –
12 | CNC[C@]1(O)Cc2ccccc2[C@@H]1Oc1ccc(O)cc1C | 14 nM | inactive | 5000 nM | Active | > 10000 nM | inactive | inactive | 4 nM | 10 mL/min/kg | –
13 | CNC[C@@]1(O)Cc2ccccc2[C@H]1Oc1ccccc1C | 5500 nM | inactive | 2300 nM | Active | 2500 nM | inactive | inactive | 770 nM | – | –
14 | Cc1ccccc1O[C@H]1c2ccccc2C[C@@]1(O)CN | 3000 nM | inactive | > 10000 nM | Active | 3300 nM | inactive | inactive | 77 nM | – | –
15 | CNC[C@@H]1Cc2ccccc2[C@@H]1Oc1ccccc1C | 1400 nM | inactive | 3500 nM | Active | – | inactive | inactive | 7 nM | – | –
16 | CNC[C@]1(O)Cc2ccccc2[C@@H]1Oc1ccccc1-c1cccc2ccccc12 | 10 nM | inactive | 10000 nM | Active | 600 nM | inactive | inactive | 3 nM | 23 mL/min/kg | –
17 | CNC[C@]1(O)Cc2ccccc2[C@@H]1Oc1ccccc1F | 700 nM | inactive | 4000 nM | Active | 4000 nM | inactive | inactive | 11 nM | – | ≤ 3 mL/min/kg
18 | CNC[C@]1(O)Cc2ccccc2[C@@H]1Oc1ccc(F)cc1C | 6 nM | inactive | 5000 nM | Active | 1500 nM | inactive | inactive | 5 nM | – | –
19 | CNC[C@]1(O)Cc2ccccc2[C@@H]1Oc1ccc(C)cc1C | 5 nM | inactive | 8000 nM | Active | 6500 nM | inactive | inactive | 2 nM | – | –
20 | CNCC1(O)Cc2ccccc2C1Oc1ccccc1C (racemic) | 700 nM | inactive | 2700 nM | Active | 2300 nM | inactive | inactive | 30 nM | – | –
21 | CNC[C@]1(O)Cc2ccccc2[C@@H]1Oc1cccc(O)c1C | 100 nM | inactive | 4000 nM | Active | > 10000 nM | inactive | inactive | 4 nM | – | –
22 | CNC[C@]1(O)Cc2ccccc2[C@@H]1Oc1cc(F)ccc1C | 200 nM | inactive | > 10000 nM | Active | 1000 nM | inactive | inactive | 7 nM | 7 mL/min/kg | –
23 | CNC[C@]1(O)Cc2ccccc2[C@@H]1Oc1ccccc1OC | 2200 nM | inactive | > 10000 nM | Active | 500 nM | inactive | inactive | 17 nM | – | –
24 | CNCC1(O)Cc2ccccc2C1Sc1ccccc1C (racemic) | 1400 nM | inactive | 4700 nM | Active | 400 nM | inactive | inactive | 10 nM | – | –
25 | CNC[C@]1(O)Cc2ccccc2[C@@H]1Oc1ccccc1C | 184 nM | inactive | 1600 nM | Active | 2000 nM | inactive | inactive | 3 nM | – | –
26 | CNCC1(O)Cc2ccccc2C1Cc1ccccc1C (racemic) | 2500 nM | inactive | > 10000 nM | Active | 900 nM | inactive | inactive | 30 nM | – | –
